Reference: patent publication US7803930B2, “Antisense modulation of apolipoprotein B-expression” (Isis Pharmaceuticals, Inc., priority 2002, dated 2010)
In the oligonucleotide strings, read from the 5' end, every base follows the letter of its sugar. An asterisk marks phosphorothioate; unmarked linkages are phosphodiester. Other units and linkages are bracketed, terminal groups are in braces. A string of capitals states the bases alone. e = 2'-O-(2-methoxyethyl) (MOE); [5mC] = 5-methylcytosine; d = 2'-deoxy (DNA)

Experiments:
apolipoprotein B mRNA [1] = test: LDLr(-/-) mice dose response (Example 44): apolipoprotein B mRNA; assay type: in vivo, mouse; conditions: six weeks
Experimental: (§1) LDLr(−/−) mice, purchased from Taconic (Germantown, N.Y.) were used to evaluate antisense oligonucleotides for their potential to lower apolipoprotein B mRNA or protein levels, as well as phenotypic endpoints associated with apolipoprotein B. LDLr(−/−) mice were separated into groups of males and females. LDLr(−/−) mice were dosed intraperitoneally twice a week for six weeks with either 10, 25, or 50 mg/kg of ISIS 147764 (SEQ ID NO: 109) or ISIS 270906 (SEQ ID NO: 856) which is a 4 base mismatch of ISIS 147764, or with saline, or 20 mg/kg of Atorvastatin. At study termination animals were sacrificed and evaluated for several phenotypic markers.

[2] = LDLr(-/-) mice dose response (Example 44): liver enzyme, cholesterol and triglyceride levels; assay type: in vivo, mouse; conditions: six weeks
Experimental: as §1

apolipoprotein B mRNA [3] = test: High fat fed mice, time-dependent effects and after cessation of dosing (Example 51): apolipoprotein B mRNA in liver; assay type: in vivo, mouse; conditions: for % Inhibition apolipoprotein B mRNA: liver
Experimental: In a further embodiment of the invention, the inhibition of apolipoprotein B mRNA in mice was compared to liver oligonucleotide concentration, total cholesterol, LDL-cholesterol and HDL-cholesterol. Male C57Bl/6 mice receiving a high fat diet (60% fat) were evaluated over the course of 6 weeks for the effects of treatment with twice weekly intraperitoneal injections of 50 mg/kg ISIS 147764 (SEQ ID NO: 109) or 50 mg/kg of the control oligonucleotide ISIS 141923 (SEQ ID NO: 858). Control animals received saline treatment. Animals were sacrificed after 2 days, 1, 2, 4 and 6 weeks of treatment. Each treatment group at each time point consisted of 8 mice.
Target expression in liver was measured by real-time PCR as described by other examples herein and is expressed as percent inhibition relative to saline treated mice. Total, LDL- and HDL-cholesterol levels were measured by routine clinical analysis using an Olympus Clinical Analyzer (Olympus America Inc., Melville, N.Y.) and are presented in mg/dL. Results from saline-treated animals are shown for comparison. Intact oligonucleotide in liver tissue was measured by capillary gel electrophoresis and is presented as micrograms of oligonucleotide per gram of tissue.
The oligonucleotide treatments described in this example were duplicated to investigate the extent to which effects of ISIS 147764 persist following cessation of treatment. Mice were treated as described, and sacrificed 1, 2, 4, 6 and 8 weeks following the cessation of oligonucleotide treatment.

lipoprotein(a) = test: Lipoprotein(a) particle secretion from primary human hepatocytes, ELISA; assay type: cell-based; conditions: 24 hours
Experimental: Primary human hepatocytes (InVitro Technologies, Baltimore, Md.), cultured and transfected as described herein, were treated for 24 hours with 50 or 150 nM of ISIS 271009 (SEQ ID NO: 319), 281625 (SEQ ID NO: 224), 301012 (SEQ ID NO: 247) or 301027 (SEQ ID NO: 262). Cells were also treated with 150 nM of the control oligonucleotides ISIS 113529 (SEQ ID NO: 859) or ISIS 13650 (SEQ ID NO: 806). Untreated cells served as a control. Following 24 hours of oligonucleotide treatment, the amount of lipoprotein(a) in the culture medium collected from the treated cells was measured using a commercially available ELISA kit (ALerCHEK Inc., Portland, Me.). The results are the average of three experiments and are expressed as percent change in lipoprotein(a) secretion relative to untreated controls.

[4] = Transgenic mice dosing study (Example 52): serum total, LDL- and HDL-cholesterol; assay type: in vivo, mouse; conditions: 10 or 25 mg/kg, first 4 weeks of treatment
Experimental: A long-term study of inhibition of human apolipoprotein B by ISIS 301012 in C57BL/6NTac-TgN(APOB100) mice (Taconic, Germantown, N.Y.) was conducted for a 3 month period. Mice were dosed intraperitoneally twice a week with 10 or 25 mg/kg ISIS 301012 (SEQ ID No: 247) for 12 weeks. Saline-injected animals served as controls. Each treatment group comprised 4 animals.
Results are presented as mg/dL in serum and represent the average of 4 animals. Results from the saline control animals are also shown.

[5] = test system: human apolipoprotein B protein; test: Transgenic mice (Example 47): serum human apolipoprotein B protein by ELISA; assay type: in vivo, human transgene in mouse; conditions: 25 mg/kg, relative to saline-treated animals
Experimental: Serum samples were also collected at 2, 4, 6 and 8 weeks and were evaluated for human apolipoprotein B expression by using a human apolipoprotein B specific ELISA kit (ALerCHEK Inc., Portland, Me.). […] Treatment with ISIS 301012 reduced serum human apolipoprotein B protein by 70, 87, 81 and 41% at 2, 4, 6 and 8 weeks, respectively, relative to saline-treated control animals. Serum from transgenic mice was also subjected to immunoblot analysis using both human and mouse specific apolipoprotein B antibodies (US Biologicals, Swampscott, Mass. and Santa Cruz Biotechnology, Inc., Santa Cruz, Calif., respectively).

[6] = female LDLr(-/-) mice, 10 mg/kg i.p. twice a week
[7] = female LDLr(-/-) mice, 25 mg/kg i.p. twice a week
[8] = female LDLr(-/-) mice, 50 mg/kg i.p. twice a week
[9] = male LDLr(-/-) mice, 10 mg/kg i.p. twice a week
[10] = male LDLr(-/-) mice, 25 mg/kg i.p. twice a week
[11] = male LDLr(-/-) mice, 50 mg/kg i.p. twice a week
[12] = male and female LDLr(-/-) mice, 10, 25 or 50 mg/kg i.p. twice a week

Substance: 147764 (eG*eT*e[5mC]*e[5mC]*e[5mC]*dT*dG*dA*dA*dG*dA*dT*dG*dT*d[5mC]*eA*eA*eT*eG*e[5mC]) [compound 147764]
- apolipoprotein B mRNA % control (apolipoprotein B mRNA [1]; [6]): 64.2 % control
- apolipoprotein B mRNA % control (apolipoprotein B mRNA [1]; [7]): 41.3 % control
- apolipoprotein B mRNA % control (apolipoprotein B mRNA [1]; [8]): 18.5 % control
- apolipoprotein B mRNA % control (apolipoprotein B mRNA [1]; [9]): 61.7 % control
- apolipoprotein B mRNA % control (apolipoprotein B mRNA [1]; [10]): 30.7 % control
- apolipoprotein B mRNA % control (apolipoprotein B mRNA [1]; [11]): 16.6 % control
- Lipoproteins CHOL [2, 6]: 269.6 mg/dL
- Lipoproteins HDL [2, 6]: 121.0 mg/dL
- Lipoproteins LDL [2, 6]: 127.8 mg/dL
- Lipoproteins TRIG [2, 6]: 140.8 mg/dL
- Liver Enzymes ALT [2, 6]: 27.2 IU/L
- Liver Enzymes AST [2, 6]: 82.0 IU/L
- Lipoproteins CHOL [2, 7]: 175.8 mg/dL
- Lipoproteins HDL [2, 7]: 99.5 mg/dL
- Lipoproteins LDL [2, 7]: 68.9 mg/dL
- Lipoproteins TRIG [2, 7]: 100.4 mg/dL
- Liver Enzymes ALT [2, 7]: 32.2 IU/L
- Liver Enzymes AST [2, 7]: 61.4 IU/L
- Lipoproteins CHOL [2, 8]: 138.2 mg/dL
- Lipoproteins HDL [2, 8]: 92.2 mg/dL
- Lipoproteins LDL [2, 8]: 45.9 mg/dL
- Lipoproteins TRIG [2, 8]: 98.0 mg/dL
- Liver Enzymes ALT [2, 8]: 120.4 IU/L
- Liver Enzymes AST [2, 8]: 134.6 IU/L
- Lipoproteins CHOL [2, 9]: 314.2 mg/dL
- Lipoproteins HDL [2, 9]: 150.0 mg/dL
- Lipoproteins LDL [2, 9]: 134.7 mg/dL
- Lipoproteins TRIG [2, 9]: 198.6 mg/dL
- Liver Enzymes ALT [2, 9]: 29.8 IU/L
- Liver Enzymes AST [2, 9]: 57.6 IU/L
- Lipoproteins CHOL [2, 10]: 185.0 mg/dL
- Lipoproteins HDL [2, 10]: 110.6 mg/dL
- Lipoproteins LDL [2, 10]: 66.2 mg/dL
- Lipoproteins TRIG [2, 10]: 104.2 mg/dL
- Liver Enzymes ALT [2, 10]: 78.8 IU/L
- Liver Enzymes AST [2, 10]: 112.6 IU/L
- Lipoproteins CHOL [2, 11]: 165.6 mg/dL
- Lipoproteins HDL [2, 11]: 107.8 mg/dL
- Lipoproteins LDL [2, 11]: 51.2 mg/dL
- Lipoproteins TRIG [2, 11]: 113.4 mg/dL
- Liver Enzymes ALT [2, 11]: 156.8 IU/L
- Liver Enzymes AST [2, 11]: 163.6 IU/L
- % Inhibition apolipoprotein B mRNA (apolipoprotein B mRNA [3]; high fat fed male C57Bl/6 mice, 50 mg/kg i.p. twice weekly, treatment period 1 week): 57%
- % Inhibition apolipoprotein B mRNA (apolipoprotein B mRNA [3]; high fat fed male C57Bl/6 mice, 50 mg/kg i.p. twice weekly, treatment period 2 weeks): 73%
- % Inhibition apolipoprotein B mRNA (apolipoprotein B mRNA [3]; high fat fed male C57Bl/6 mice, 50 mg/kg i.p. twice weekly, treatment period 4 weeks): 82%
- % Inhibition apolipoprotein B mRNA (apolipoprotein B mRNA [3]; high fat fed male C57Bl/6 mice, 50 mg/kg i.p. twice weekly, treatment period 6 weeks): 88%
- % Inhibition apolipoprotein B mRNA (apolipoprotein B mRNA [3]; high fat fed male C57Bl/6 mice, 50 mg/kg i.p. twice weekly, treatment period 2 days): 50%
- % Inhibition apolipoprotein B mRNA (apolipoprotein B mRNA [3]; high fat fed mice, 50 mg/kg i.p. twice weekly, 1 week after cessation of dosing): 82%
- % Inhibition apolipoprotein B mRNA (apolipoprotein B mRNA [3]; high fat fed mice, 50 mg/kg i.p. twice weekly, 2 weeks after cessation of dosing): 78%
- % Inhibition apolipoprotein B mRNA (apolipoprotein B mRNA [3]; high fat fed mice, 50 mg/kg i.p. twice weekly, 4 weeks after cessation of dosing): 49%
- % Inhibition apolipoprotein B mRNA (apolipoprotein B mRNA [3]; high fat fed mice, 50 mg/kg i.p. twice weekly, 6 weeks after cessation of dosing): 37%
- % Inhibition apolipoprotein B mRNA (apolipoprotein B mRNA [3]; high fat fed mice, 50 mg/kg i.p. twice weekly, 8 weeks after cessation of dosing): 19%

Substance: 271009 (antisense eG*e[5mC]*e[5mC]*eT*e[5mC]*dA*dG*dT*d[5mC]*dT*dG*d[5mC]*dT*dT*d[5mC]*eG*e[5mC]*eG*e[5mC]*e[5mC]) [compound 271009]
- % Change in lipoprotein(a) secretion (lipoprotein(a); 50 nM): −25%
- % Change in lipoprotein(a) secretion (lipoprotein(a); 150 nM): −42%

Substance: 281625 (antisense eA*eG*eG*eT*eT*dA*d[5mC]*d[5mC]*dA*dG*d[5mC]*d[5mC]*dA*d[5mC]*dA*eT*eG*e[5mC]*eA*eG) [compound 281625]
- % Change in lipoprotein(a) secretion (lipoprotein(a); 50 nM): −26%
- % Change in lipoprotein(a) secretion (lipoprotein(a); 150 nM): −24%

Substance: 301027 (eG*e[5mC]*eT*e[5mC]*eA*d[5mC]*dT*dG*dT*dA*dT*dG*dG*dT*dT*eT*eT*eA*eT*e[5mC]; antisense) [compound 301027]
- % Change in lipoprotein(a) secretion (lipoprotein(a); 50 nM): −33%
- % Change in lipoprotein(a) secretion (lipoprotein(a); 150 nM): −44%

Substance: GTCCCTGAAGATGTCAATGC (2'-MOE gapmer, further chemistry not given here) [ISIS 147764]
- mRNA levels (apolipoprotein B mRNA [1]; [12]): able to lower cholesterol, triglycerides, and mRNA levels in a dose-dependent manner
- cholesterol, triglycerides [2, 12]: able to lower cholesterol, triglycerides, and mRNA levels in a dose-dependent manner
- time of treatment within which inhibition of apolipoprotein B mRNA occurred (apolipoprotein B mRNA [3]; high fat fed C57Bl/6 mice, 50 mg/kg i.p. twice weekly): ≤ 2 days
- persistence of effects (mRNA inhibition, cholesterol lowering) after termination of treatment (apolipoprotein B mRNA [3]; high fat fed C57Bl/6 mice, after 6 weeks of 50 mg/kg twice weekly): up to 8 weeks
- LDL-cholesterol [4]: lowered

Substance: ISIS 281625: SEQ ID NO: 224, 2′-MOE gapmer targeted to human apolipoprotein B (antisense eA*eG*eG*eT*eT*dA*d[5mC]*d[5mC]*dA*dG*d[5mC]*d[5mC]*dA*d[5mC]*dA*eT*eG*e[5mC]*eA*eG)
- reduction of serum human apolipoprotein B protein (ELISA) ([5]; 2 weeks): 31%
- reduction of serum human apolipoprotein B protein (ELISA) ([5]; 4 weeks): 26%
- reduction of serum human apolipoprotein B protein (ELISA) ([5]; 6 weeks): 11%
- reduction of serum human apolipoprotein B protein (ELISA) ([5]; 8 weeks): 26%
